Reference: PubChem BioAssay (NCI)
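1) Cells in 96-well plates. 2) Compound, 48 h, 5 concentrations. 3) Linear interpolation between surrounding doses. 4) Unreached endpoint = highest concentration. GI50: concentration for 50% inhibition of growth. Definition used: TGI = concentration required for complete inhibition of growth.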

Key:
Experiment in all cases: NCI anticancer screen, dose series, 48 h
A498 renal = tested on: A498 renal
OVCAR-4 ovarian = tested on: OVCAR-4 ovarian
OVCAR-8 ovarian = tested on: OVCAR-8 ovarian
M14 melanoma = tested on: M14 melanoma
HOP-62 NSCLC = tested on: HOP-62 NSCLC
SK-OV-3 ovarian = tested on: SK-OV-3 ovarian
NCI-H460 lung = tested on: NCI-H460 lung
NCI-H522 lung = tested on: NCI-H522 lung
NCI-H23 lung = tested on: NCI-H23 lung
LOX IMVI melanoma = tested on: LOX IMVI melanoma

| SMILES | TGI (A498 renal) | TGI (OVCAR-4 ovarian) | TGI (OVCAR-8 ovarian) | TGI (M14 melanoma) | TGI (HOP-62 NSCLC) | TGI (SK-OV-3 ovarian) | TGI (NCI-H460 lung) | TGI (NCI-H522 lung) | TGI (NCI-H23 lung) | TGI (LOX IMVI melanoma) | GI50 (A498 renal) | GI50 (OVCAR-4 ovarian) | GI50 (OVCAR-8 ovarian) | GI50 (M14 melanoma) | GI50 (HOP-62 NSCLC) | GI50 (SK-OV-3 ovarian) | GI50 (NCI-H460 lung) | GI50 (NCI-H522 lung) | GI50 (NCI-H23 lung) | GI50 (LOX IMVI melanoma) |
| --- | --- | --- | --- | --- | --- | --- | --- | --- | --- | --- | --- | --- | --- | --- | --- | --- | --- | --- | --- | --- |
| CN(C)CCNC(=O)c1cccc2c(Nc3ccc(S(N)(=O)=O)cc3)c3ccccc3nc12 | 7.08 µM | 5.77 µM | 3.73 µM | 5.72 µM | 11.6 µM | 3.59 µM | 1.96 µM | 2.8 µM | 5.39 µM | 2.59 µM |  |  |  |  |  |  |  |  |  |  |
| CN1CCN(c2cc(C(=O)Nc3cc4cc(-c5cnn(C)c5)ccc4cn3)ccn2)CC1 | 0.447 µM | 1.46 µM | 11.7 µM | 13.3 µM | 12.7 µM | 2.44 µM | 11.7 µM | 0.327 µM | 3.29 µM | 0.262 µM | 0.0605 µM | 0.151 µM | 0.225 µM | 0.22 µM | 0.207 µM | 0.0631 µM | 0.121 µM | 0.0472 µM | 0.111 µM | 0.0933 µM |
| COc1ccc(-c2nc(C(=O)c3ccccc3)n(CC(=O)c3ccccc3)c2-c2ccc(OC)cc2)cc1 | > 100 µM | > 100 µM | > 100 µM | > 100 µM | > 100 µM | > 100 µM | > 100 µM | > 100 µM | > 100 µM | > 100 µM | > 100 µM | > 100 µM | > 100 µM | > 100 µM | > 100 µM | > 100 µM | > 100 µM | > 100 µM | > 100 µM | > 100 µM |
| CC(=O)N1c2ccccc2NC2=C(C(=O)N(Cc3ccccc3)C2(C)C)C1c1ccco1 (stereo not given) | > 7.06 µM | > 25 µM | > 25 µM | 5.31 µM | > 25 µM | > 25 µM | > 21.2 µM | > 25 µM | > 25 µM | > 25 µM | 0.727 µM | > 6.37 µM | 1.24 µM | 0.748 µM | 1.25 µM | 0.786 µM | 0.145 µM | 0.871 µM | 0.494 µM | 1.01 µM |
| COc1ccc(Cc2cc3c(cc2OCC(=O)O)OCO3)cc1 | > 100 µM | > 100 µM | > 100 µM | > 100 µM | > 100 µM | > 100 µM | > 100 µM | > 100 µM | > 100 µM | > 100 µM |  |  |  |  |  |  |  |  |  |  |
| C[C@@H]1Cc2c([nH]c3ccccc23)[C@@H](c2c(F)cc(NC3CN(CCCF)C3)cc2F)N1CC(F)(F)CO | 8.82 µM | 21.9 µM | 33 µM | 3.84 µM | 31.1 µM | 28.4 µM | 19.2 µM | 16.7 µM | 25.6 µM | 3.49 µM | 1.64 µM | 9.86 µM | 11.7 µM | 1.87 µM | 13.6 µM | 14.4 µM | 5.19 µM | 4.16 µM | 11.9 µM | 1.75 µM |
| COC(=O)c1c(O)c([N+](=O)[O-])cc2c1c1c(n2Cc2ccccc2)C(=O)c2ccccc2C1=O | 49 µM | > 100 µM | 53.1 µM | 24.1 µM | 49.8 µM | > 100 µM | 27.3 µM | 65.6 µM | 84.4 µM | > 100 µM | 18.5 µM | 57.3 µM | 14.1 µM | 10.6 µM | 21.3 µM | > 100 µM | 4.94 µM | 23.3 µM | 21.9 µM | > 100 µM |
| O=C(/C=N/O)Nc1cc(Cl)c(Cl)cc1Cl | 55.5 µM | > 100 µM | > 100 µM | > 100 µM | > 100 µM | > 100 µM | > 100 µM | 67.8 µM | 86.6 µM | > 100 µM |  |  |  |  |  |  |  |  |  |  |
| Cc1ccc(NC(=O)C(=O)CC(=O)C2CCOC2=O)c(C)c1 (stereo not given) | > 100 µM | > 100 µM | > 100 µM | > 100 µM | > 100 µM | > 100 µM | > 100 µM | > 100 µM | > 100 µM | > 100 µM |  |  |  |  |  |  |  |  |  |  |
| CCN(CC)c1ccc2c(c1)Oc1nc(N)c(C#N)c(N)c1C2Sc1ccc(OC)cc1 (stereo not given) | 4.14 µM | 3.02 µM | 3.76 µM | 3.33 µM | 3.43 µM | 3.38 µM | 3.81 µM | 3.38 µM | 3.02 µM | 3.07 µM | 2.29 µM | 1.57 µM | 1.87 µM | 1.77 µM | 1.88 µM | 1.92 µM | 1.94 µM | 1.79 µM | 1.52 µM | 1.56 µM |
| Cc1nc([C@H]2CC[C@H]3[C@@H]4CCC5=CC(=O)CC[C@]5(C)[C@H]4CC[C@]23C)cs1 | > 100 µM | > 100 µM | > 100 µM | > 100 µM | > 100 µM | > 100 µM | > 100 µM | > 100 µM | > 100 µM | > 100 µM | > 53.3 µM | 3.02 µM | 4.62 µM | 15.9 µM | > 100 µM | > 100 µM | 2.67 µM | 7.01 µM | 2.58 µM | 5.09 µM |
| O=C(CC1(O)C(=O)Nc2ccccc21)c1ccco1 (stereo not given) | > 100 µM | > 100 µM | > 100 µM | > 100 µM | > 100 µM | > 100 µM | > 100 µM | > 100 µM | > 100 µM | > 100 µM |  |  |  |  |  |  |  |  |  |  |
| C#CCN(N=O)C(=O)NC(CCCNC(=O)OCc1ccccc1)C(=O)OCc1ccccc1 (stereo not given) | > 100 µM | > 100 µM | > 100 µM | > 100 µM | > 100 µM | > 100 µM | > 100 µM | 27.2 µM | > 100 µM | > 100 µM |  |  |  |  |  |  |  |  |  |  |
| Clc1ccc(C2=Nn3c(nnc3-c3cc(Cl)cc(Cl)c3Cl)SC2)cc1 | > 100 µM | > 100 µM | > 100 µM | > 100 µM | 32.5 µM | 44.5 µM | > 100 µM | 46.2 µM | 78.8 µM | > 100 µM | 31.1 µM | > 100 µM | 38.3 µM | 29 µM | 14.5 µM | 17.6 µM | 41.3 µM | 12.7 µM | 22.1 µM | 27.1 µM |
